From patent publication US20250333397A1 (REMIX THERAPEUTICS INC., priority 2021, published 2025)
Like-named read-outs stand apart in the source and are kept apart here.

Key:
Type in all cases: cell-based, human
Target C mRNA = experiment: RT-qPCR splicing assay panel, Target C canonical junction (CJ) mRNA
Summary of the method: (§1)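 Junction-specific RT-qPCR read the canonical exon-exon junction and the compound-induced alternative-exon junction, normalized to GAPDH, GUSB or PPIA and then to DMSO (2^(-ΔΔCt)). Input was lysate from A673 or K562 cells exposed for 24 h to compound up to 10 uM.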

SMN2 mRNA = experiment: RT-qPCR splicing assay panel, SMN2 canonical junction (CJ) mRNA
Summary of the method: as §1

HTT mRNA = experiment: RT-qPCR splicing assay, HTT canonical (CJ) and alternative (AJ) junction mRNA; settings: for AC50: read-out: HTT AJ (AC50, increase in AJ mRNA)
Summary of the method: as §1

MYB mRNA = experiment: RT-qPCR splicing assay, MYB canonical (CJ) and alternative (AJ) junction mRNA; settings: for AC50: read-out: MYB AJ (AC50, increase in AJ mRNA)
Summary of the method: as §1

[1] = Homo sapiens, canonical junction (CJ) mRNA, RT-qPCR panel, Table 4A, read-out: Target C, decrease in CJ mRNA levels, IC50
[2] = Homo sapiens, canonical junction (CJ) mRNA, RT-qPCR panel, Table 4A, read-out: SMN2, decrease in CJ mRNA levels, IC50
[3] = Homo sapiens, 24 h, Table 3A, A673 or K562 cells, 24 h treatment
[4] = Homo sapiens, 24 h, Table 3A, A673 or K562 cells, 24 h treatment, read-out: HTT CJ (IC50, decrease in CJ mRNA)
[5] = Homo sapiens, canonical junction (CJ) mRNA, RT-qPCR panel, Table 4A, read-out: HTT, decrease in CJ mRNA levels, IC50
[6] = Homo sapiens, 24 h, Table 3A, A673 or K562 cells, 24 h treatment, read-out: MYB CJ (IC50, decrease in CJ mRNA)
[7] = Homo sapiens, canonical junction (CJ) mRNA, RT-qPCR panel, Table 4A, read-out: MYB, decrease in CJ mRNA levels, IC50
[8] = Homo sapiens, Table 4B, gene panel, read-out: Target C (IC50, decrease in CJ mRNA levels)
[9] = Homo sapiens, Table 4B, gene panel, read-out: SMN2 (IC50, decrease in CJ mRNA levels)
[10] = Homo sapiens, 24 h, Table 3B, A673 or K562 cells, 24 h treatment
[11] = Homo sapiens, 24 h, Table 3B, A673 or K562 cells, 24 h treatment, read-out: HTT CJ (IC50, decrease in CJ mRNA)
[12] = Homo sapiens, Table 4B, gene panel, read-out: HTT (IC50, decrease in CJ mRNA levels)
[13] = Homo sapiens, 24 h, Table 3B, A673 or K562 cells, 24 h treatment, read-out: MYB CJ (IC50, decrease in CJ mRNA)
[14] = Homo sapiens, Table 4B, gene panel, read-out: MYB (IC50, decrease in CJ mRNA levels)
[15] = Table 3A, A673 or K562 cells, 24 h treatment

| Structure (SMILES) | IC50 (Target C mRNA; [1]) | IC50 (SMN2 mRNA; [2]) | AC50 (HTT mRNA; [3]) | IC50 (HTT mRNA; [4]) | IC50 (HTT mRNA; [5]) | AC50 (MYB mRNA; [3]) | IC50 (MYB mRNA; [6]) | IC50 (MYB mRNA; [7]) | further results |
| --- | --- | --- | --- | --- | --- | --- | --- | --- | --- |
| COc1cc(-c2ccc(-c3ccc(N4CC[C@@H](NC5(C)CCC5)C4)nn3)c(O)c2)ncn1 [Compound 383, 5-(6-methoxypyrimidin-4-yl)-2-{6-[(3R)-3-[(1-methylcyclobutyl)amino]pyrrolidin-1-yl]pyridazin-3-yl}phenol] | < 0.1 µM | < 0.1 µM | < 0.1 µM | < 0.1 µM | < 0.1 µM | 0.1 to 1 µM | 0.1 to 1 µM | 0.1 to 1 µM |  |
| Oc1cc(-c2ccc(-c3ccc(N4CC[C@H](NC5CCC5)C4)nn3)c(O)c2)cnn1 [Compound 420, 5-(4-{6-[(3S)-3-(cyclobutylamino)pyrrolidin-1-yl]pyridazin-3-yl}-3-hydroxyphenyl)pyridazin-3-ol] | 1 to 10 µM | 0.1 to 1 µM | 1 to 10 µM | 0.1 to 1 µM | 0.1 to 1 µM | > 10 µM | 1 to 10 µM | 1 to 10 µM |  |
| COc1nc(-c2ccc(N3CC[C@@H](NC(C)(C)C)C3)nn2)ccc1-c1cnc(C)s1 [Compound 405] | < 0.1 µM | < 0.1 µM | < 0.1 µM | < 0.1 µM | < 0.1 µM | < 0.1 µM | < 0.1 µM | < 0.1 µM |  |
| Cc1nc2cc(O)c(-c3cnc(N4CC[C@H](N(C)C(C)(C)C)C4)nn3)cc2o1 [Compound 857] |  |  |  |  |  |  |  |  | IC50 (Target C mRNA; [8]): 0.1 to 1 µM; IC50 (SMN2 mRNA; [9]): < 0.1 µM; AC50 (HTT mRNA; [10]): 0.1 to 1 µM; IC50 (HTT mRNA; [11]): < 0.1 µM; IC50 (HTT mRNA; [12]): < 0.1 µM; AC50 (MYB mRNA; [10]): 0.1 to 1 µM; IC50 (MYB mRNA; [13]): 0.1 to 1 µM; IC50 (MYB mRNA; [14]): 0.1 to 1 µM |
| Oc1cc(-c2cn[nH]c2)ccc1-c1ccc(N2CC[C@H](NC3CCC3)C2)nn1 [Compound 116, 2-{6-[(3S)-3-(cyclobutylamino)pyrrolidin-1-yl]pyridazin-3-yl}-5-(1H-pyrazol-4-yl)phenol] | < 0.1 µM | < 0.1 µM | < 0.1 µM | < 0.1 µM | < 0.1 µM | 0.1 to 1 µM | 0.1 to 1 µM | 0.1 to 1 µM |  |
| Oc1cc(-c2cn[nH]c2)ccc1-c1ccc(N2CCC(NC3CC3)C2)nn1 (stereo not drawn) [Compound 102, 2-(6-(3-(cyclopropylamino)pyrrolidin-1-yl)pyridazin-3-yl)-5-(1H-pyrazol-4-yl)phenol] |  |  |  |  |  |  |  |  | IC50 (Target C mRNA; canonical junction (CJ) mRNA, RT-qPCR panel, Table 4A, read-out: Target C, decrease in CJ mRNA levels, IC50): > 10 µM; IC50 (SMN2 mRNA; canonical junction (CJ) mRNA, RT-qPCR panel, Table 4A, read-out: SMN2, decrease in CJ mRNA levels, IC50): 1 to 10 µM; AC50 (HTT mRNA; [15]): > 10 µM; IC50 (HTT mRNA; Table 3A, A673 or K562 cells, 24 h treatment, read-out: HTT CJ (IC50, decrease in CJ mRNA)): > 10 µM; IC50 (HTT mRNA; canonical junction (CJ) mRNA, RT-qPCR panel, Table 4A, read-out: HTT, decrease in CJ mRNA levels, IC50): > 10 µM; AC50 (MYB mRNA; [15]): > 10 µM; IC50 (MYB mRNA; Table 3A, A673 or K562 cells, 24 h treatment, read-out: MYB CJ (IC50, decrease in CJ mRNA)): > 10 µM; IC50 (MYB mRNA; canonical junction (CJ) mRNA, RT-qPCR panel, Table 4A, read-out: MYB, decrease in CJ mRNA levels, IC50): > 10 µM |
| CCOc1cc(-c2ccc(-c3ccc(N4CCC(NCC5CC5)C4)nn3)c(O)c2)ncn1 (stereo not drawn) [Compound 433] | > 10 µM | > 10 µM | > 10 µM | > 10 µM | > 10 µM | > 10 µM | > 10 µM | > 10 µM |  |
| Cc1nc2cc(O)c(-c3ccc(N4CCC(NC(C)(C)C(C)C)C4)nn3)cc2o1 (stereo not drawn) [Compound 862] |  |  |  |  |  |  |  |  | IC50 (Target C mRNA; [8]): 1 to 10 µM; IC50 (SMN2 mRNA; [9]): 0.1 to 1 µM; AC50 (HTT mRNA; [10]): 0.1 to 1 µM; IC50 (HTT mRNA; [11]): 0.1 to 1 µM; IC50 (HTT mRNA; [12]): 0.1 to 1 µM; AC50 (MYB mRNA; [10]): 1 to 10 µM; IC50 (MYB mRNA; [13]): 1 to 10 µM; IC50 (MYB mRNA; [14]): 1 to 10 µM |
| COc1cc(-c2ccc(-c3ccc(N4CC[C@H](NC5CC5)C4)nn3)c(O)c2)cnn1 [Compound 215, 2-{6-[(3S)-3-(cyclopropylamino)pyrrolidin-1-yl]pyridazin-3-yl}-5-(6-methoxypyridazin-4-yl)phenol] | 0.1 to 1 µM | < 0.1 µM | < 0.1 µM | < 0.1 µM | < 0.1 µM | 0.1 to 1 µM | 0.1 to 1 µM | 0.1 to 1 µM |  |
